Test results published in PMC9025560, “A Comparison of Evans Blue and 4-(p-Iodophenyl)butyryl Albumin Binding Moieties on an Integrin αvβ6 Binding Peptide” (Pharmaceutics, 2022).
Read-outs that look alike come from different tables or passages of the source.

How the values were obtained:
[1] = Blocking biodistribution with pre-administered metal free peptide; assay type: in vivo, mice; settings: female, athymic nu/nu-nude, mouse, intravenous, total radioactivity, 4 h p.i., metal free peptide 10 min before, n = 1
Experimental: For blocking studies, the metal free peptides 1 or 2 (~220 nmol, 1.3 mg in 100 μL PBS), respectively, were injected i.v. (n = 1/peptide) as described above 10 min prior to the injection of matching radiolabeled [^64Cu]1 or [^64Cu]2 (3.7–5.55 MBq, 100 μL PBS). After a conscious 4 h uptake period, the animals were anesthetized, sacrificed, tissues rapidly collected, and analyzed as described above. Decay-corrected radioactivity concentrations are expressed as a percentage of injected dose per gram of tissue (% ID/g) (Figure S23).

[2] = Biodistribution in mice bearing BxPC-3 xenograft tumors; assay type: in vivo; settings: female, athymic nu/nu-nude, mouse, in vivo, total radioactivity; for tissue uptake at 4 h: 4 h p.i.; for tissue uptake at 24 h: 24 h p.i.; for tissue uptake at 48 h: 48 h p.i.
Experimental: All animal procedures conformed to the Animal Welfare Act and were approved by the University of California, Davis Institutional Animal Care and Use Committee. Female athymic nu/nu-nude mice (6–8 weeks old) were purchased from Charles River Laboratories (Wilmington, MA, USA) and provided food and water on an ad libitum basis. BxPC-3 xenografts were implanted according to previous methods. Briefly, BxPC-3 cells were evaluated by flow cytometry to confirm integrin αvβ6 expression levels, injected subcutaneously into the left flank [5 million in 100 μL of a 1:1 mixture of serum-free RPMI and GFR Matrigel (Corning, New York, NY, USA)], and allowed to grow for approximately 3 weeks until tumors reached a diameter of 0.5–1 cm.
For biodistribution studies the [^64Cu]1–4 (3.7–5.55 MBq) in PBS (100 μL, pH 7.2) was injected intravenously (i.v.) via catheter into the tail vein. Following a conscious uptake period, the mice were anesthetized (5% isoflurane), euthanized, and dissected ([^64Cu]1 and [^64Cu]2, n = 3/radiolabeled peptide/time point; 4, 24, and 48 h p.i.; the 72 h time point was obtained from the imaging animals after the 72 h PET/CT scans; compounds [^64Cu]3 and [^64Cu]4, n = 2/radiolabeled compound at 4 h p.i.). Tissues were rapidly collected, weighed, and radioactivity measured with a γ-counter. Decay-corrected radioactivity concentrations are expressed as the percentage of injected dose per gram of tissue (% ID/g). Data are reported as mean ± standard deviation (SD) (Figure S20, S21 and S25).

[3] = Stability in human serum at 37 °C; assay type: in vitro ADME; settings: read-out: Stability in human serum, % intact
Experimental: For serum stability, mouse serum or human serum (0.5 mL, both purchased from Sigma-Aldrich) was combined with an aliquot of each of the peptides [^64Cu]1 and [^64Cu]2 (≤25 μL, 14.8–22.2 MBq) and incubated at 37 °C. At each time point (1, 4, and 24 h) an aliquot (50–200 μL) was taken, proteins precipitated with ethanol, and removed by pelleting at 1500 (RCF) for 4 min. The ethanol solution was diluted with water (1 mL) and analyzed by RP-HPLC as previously described.

[4] = iv, i.v., read-out: Blood uptake
[5] = iv, i.v., read-out: Bone uptake
[6] = iv, i.v., read-out: Brain uptake
[7] = iv, i.v., read-out: BxPC-3 Tumor uptake
[8] = iv, i.v., read-out: Fecal Matter radioactivity
[9] = iv, i.v., read-out: Gall Bladder uptake
[10] = iv, i.v., read-out: Heart uptake
[11] = iv, i.v., read-out: Kidneys uptake
[12] = iv, i.v., read-out: Lg. Intestines uptake
[13] = iv, i.v., read-out: Liver uptake
[14] = iv, i.v., read-out: Lung uptake
[15] = iv, i.v., read-out: Muscle uptake
[16] = iv, i.v., read-out: Pancreas uptake
[17] = iv, i.v., read-out: Skin uptake
[18] = iv, i.v., read-out: Sm. Intestines uptake
[19] = iv, i.v., read-out: Spleen uptake
[20] = iv, i.v., read-out: Stomach uptake
[21] = iv, i.v., read-out: Urine radioactivity

Cc1cc(-c2ccc(NC(=O)CCC(=O)NCCCC[C@H](NC(=O)CN3CCN(CC(=O)O)CCN(CC(=O)O)CCN(CC(=O)O)CC3)C(=O)NCCOCCOCCOCCOCCOCCOCCOCCOCCOCCOCCOCCOCCOCCOCCOCCOCCOCCOCCOCCOCCOCCOCCOCCOCCOCCOCCOCCOCCC(=O)N[C@@H](CC(N)=O)C(=O)N[C@@H](C)C(=O)N[C@H](C(=O)N3CCC[C@H]3C(=O)N[C@@H](CC(N)=O)C(=O)N[C@@H](CC(C)C)C(=O)N[C@@H](CCCNC(=N)N)C(=O)NCC(=O)N[C@@H](CC(=O)O)C(=O)N[C@@H](CC(C)C)C(=O)N[C@@H](CCC(N)=O)C(=O)N[C@H](C(=O)N[C@@H](CC(C)C)C(=O)N[C@@H](C)C(=O)N[C@@H](CCC(N)=O)C(=O)N[C@@H](CCCNC(=N)N)C(=O)N[C@H](C(=O)N[C@@H](C)C(=O)N[C@@H](CCCNC(=N)N)C(=O)N[C@H](C(=O)NCCOCCOCCOCCOCCOCCOCCOCCOCCOCCOCCOCCOCCOCCOCCOCCOCCOCCOCCOCCOCCOCCOCCOCCOCCOCCOCCOCCOCCC(N)=O)[C@@H](C)O)C(C)C)C(C)C)C(C)C)c(C)c2)ccc1N=Nc1ccc2c(S(=O)(=O)O)cc(S(=O)(=O)O)c(N)c2c1O [[^64Cu]1, [^64Cu]Cu DOTA-EB-αvβ6-BP, metal not drawn]
tissue uptake at 4 h ([1]; BxPC-3 tumor, read-out: BxPC-3 Tumor uptake, blocked): 2.91 %ID/g
tissue uptake at 4 h ([1]; blood, read-out: Blood uptake, blocked): 2.56 %ID/g
tissue uptake at 4 h ([1]; bone, read-out: Bone uptake, blocked): 0.43 %ID/g
tissue uptake at 4 h ([1]; brain, read-out: Brain uptake, blocked): 0.07 %ID/g
tissue uptake at 4 h ([1]; gall bladder, read-out: Gall Bladder uptake, blocked): 1.96 %ID/g
tissue uptake at 4 h ([1]; heart, read-out: Heart uptake, blocked): 0.96 %ID/g
tissue uptake at 4 h ([1]; kidneys, read-out: Kidneys uptake, blocked): 71.6 %ID/g
tissue uptake at 4 h ([1]; large intestines, read-out: Lg. Intestines uptake, blocked): 0.9 %ID/g
tissue uptake at 4 h ([1]; liver, read-out: Liver uptake, blocked): 1.92 %ID/g
tissue uptake at 4 h ([1]; lung, read-out: Lung uptake, blocked): 1.65 %ID/g
tissue uptake at 4 h ([1]; muscle, read-out: Muscle uptake, blocked): 0.41 %ID/g
tissue uptake at 4 h ([1]; pancreas, read-out: Pancreas uptake, blocked): 0.39 %ID/g
tissue uptake at 4 h ([1]; skin, read-out: Skin uptake, blocked): 1.12 %ID/g
tissue uptake at 4 h ([1]; small intestines, read-out: Sm. Intestines uptake, blocked): 0.91 %ID/g
tissue uptake at 4 h ([1]; spleen, read-out: Spleen uptake, blocked): 0.85 %ID/g
tissue uptake at 4 h ([1]; stomach, read-out: Stomach uptake, blocked): 0.72 %ID/g
tissue uptake at 4 h [2, 4]: 1.3 ± 0.31 %ID/g
tissue uptake at 4 h [2, 5]: 0.44 ± 0.04 %ID/g
tissue uptake at 4 h [2, 6]: 0.09 ± 0.02 %ID/g
tissue uptake at 4 h [2, 7]: 5.29 ± 0.59 %ID/g
tissue uptake at 4 h [2, 8]: 3.03 ± 0.67 %ID/g
tissue uptake at 4 h [2, 9]: 2.12 ± 0.51 %ID/g
tissue uptake at 4 h [2, 10]: 0.99 ± 0.08 %ID/g
tissue uptake at 4 h [2, 11]: 75.5 ± 7.26 %ID/g
tissue uptake at 4 h [2, 12]: 4.13 ± 0.1 %ID/g
tissue uptake at 4 h [2, 13]: 1.64 ± 0.2 %ID/g
tissue uptake at 4 h [2, 14]: 2.71 ± 0.57 %ID/g
tissue uptake at 4 h [2, 15]: 0.67 ± 0.1 %ID/g
tissue uptake at 4 h [2, 16]: 0.46 ± 0.06 %ID/g
tissue uptake at 4 h [2, 17]: 1.56 ± 0.34 %ID/g
tissue uptake at 4 h [2, 18]: 4.72 ± 0.55 %ID/g
tissue uptake at 4 h [2, 19]: 0.32 ± 0.28 %ID/g
tissue uptake at 4 h [2, 20]: 6.41 ± 0.64 %ID/g
tissue uptake at 4 h [2, 21]: 19.6 ± 10.5 %ID/g
tissue uptake at 24 h [2, 4]: 0.33 ± 0.01 %ID/g
tissue uptake at 24 h [2, 5]: 0.34 ± 0.13 %ID/g
tissue uptake at 24 h [2, 6]: 0.09 ± 0.01 %ID/g
tissue uptake at 24 h [2, 7]: 5.03 ± 0.97 %ID/g
tissue uptake at 24 h [2, 8]: 2.85 ± 0.55 %ID/g
tissue uptake at 24 h [2, 9]: 1.85 ± 0.27 %ID/g
tissue uptake at 24 h [2, 10]: 0.92 ± 0.05 %ID/g
tissue uptake at 24 h [2, 11]: 40.5 ± 7.7 %ID/g
tissue uptake at 24 h [2, 12]: 3.46 ± 0.45 %ID/g
tissue uptake at 24 h [2, 13]: 2.09 ± 0.1 %ID/g
tissue uptake at 24 h [2, 14]: 2.79 ± 1.62 %ID/g
tissue uptake at 24 h [2, 15]: 0.5 ± 0.2 %ID/g
tissue uptake at 24 h [2, 16]: 0.48 ± 0.03 %ID/g
tissue uptake at 24 h [2, 17]: 1.08 ± 0.3 %ID/g
tissue uptake at 24 h [2, 18]: 2.78 ± 0.31 %ID/g
tissue uptake at 24 h [2, 19]: 0.56 ± 0.16 %ID/g
tissue uptake at 24 h [2, 20]: 4.18 ± 0.54 %ID/g
tissue uptake at 24 h [2, 21]: 5.01 ± 0.29 %ID/g
tissue uptake at 48 h [2, 4]: 0.33 ± 0.1 %ID/g
tissue uptake at 48 h [2, 5]: 0.3 ± 0.08 %ID/g
tissue uptake at 48 h [2, 6]: 0.12 ± 0.02 %ID/g
tissue uptake at 48 h [2, 7]: 4 ± 1.51 %ID/g
tissue uptake at 48 h [2, 8]: 2.34 ± 0.89 %ID/g
tissue uptake at 48 h [2, 9]: 1.75 ± 0.61 %ID/g
tissue uptake at 48 h [2, 10]: 1.02 ± 0.17 %ID/g
tissue uptake at 48 h [2, 11]: 26.2 ± 5.89 %ID/g
tissue uptake at 48 h [2, 12]: 2.65 ± 0.05 %ID/g
tissue uptake at 48 h [2, 13]: 2.59 ± 0.51 %ID/g
tissue uptake at 48 h [2, 14]: 2.33 ± 0.32 %ID/g
tissue uptake at 48 h [2, 15]: 0.49 ± 0.07 %ID/g
tissue uptake at 48 h [2, 16]: 0.41 ± 0.2 %ID/g
tissue uptake at 48 h [2, 17]: 1.12 ± 0.18 %ID/g
tissue uptake at 48 h [2, 18]: 1.85 ± 0.07 %ID/g
tissue uptake at 48 h [2, 19]: 0.5 ± 0.18 %ID/g
tissue uptake at 48 h [2, 20]: 3.02 ± 0.52 %ID/g
tissue uptake at 48 h [2, 21]: 3.92 ± 1.05 %ID/g
tissue uptake at 72 h ([2]; iv, 72 h p.i., i.v., read-out: Blood uptake): 0.35 ± 0.08 %ID/g
tissue uptake at 72 h ([2]; iv, 72 h p.i., i.v., read-out: Bone uptake): 0.25 ± 0.13 %ID/g
tissue uptake at 72 h ([2]; iv, 72 h p.i., i.v., read-out: Brain uptake): 0.16 ± 0.04 %ID/g
tissue uptake at 72 h ([2]; iv, 72 h p.i., i.v., read-out: BxPC-3 Tumor uptake): 3.32 ± 0.46 %ID/g
tissue uptake at 72 h ([2]; iv, 72 h p.i., i.v., read-out: Fecal Matter radioactivity): 1.81 ± 0.74 %ID/g
tissue uptake at 72 h ([2]; iv, 72 h p.i., i.v., read-out: Gall Bladder uptake): 1.75 ± 0.65 %ID/g
tissue uptake at 72 h ([2]; iv, 72 h p.i., i.v., read-out: Heart uptake): 1.15 ± 0.2 %ID/g
tissue uptake at 72 h ([2]; iv, 72 h p.i., i.v., read-out: Kidneys uptake): 20 ± 6.91 %ID/g
tissue uptake at 72 h ([2]; iv, 72 h p.i., i.v., read-out: Lg. Intestines uptake): 1.95 ± 0.29 %ID/g
tissue uptake at 72 h ([2]; iv, 72 h p.i., i.v., read-out: Liver uptake): 2.36 ± 0.51 %ID/g
tissue uptake at 72 h ([2]; iv, 72 h p.i., i.v., read-out: Lung uptake): 1.88 ± 0.11 %ID/g
tissue uptake at 72 h ([2]; iv, 72 h p.i., i.v., read-out: Muscle uptake): 0.44 ± 0.12 %ID/g
tissue uptake at 72 h ([2]; iv, 72 h p.i., i.v., read-out: Pancreas uptake): 0.59 ± 0.12 %ID/g
tissue uptake at 72 h ([2]; iv, 72 h p.i., i.v., read-out: Skin uptake): 0.88 ± 0.12 %ID/g
tissue uptake at 72 h ([2]; iv, 72 h p.i., i.v., read-out: Sm. Intestines uptake): 1.38 ± 0.18 %ID/g
tissue uptake at 72 h ([2]; iv, 72 h p.i., i.v., read-out: Spleen uptake): 0.58 ± 0.16 %ID/g
tissue uptake at 72 h ([2]; iv, 72 h p.i., i.v., read-out: Stomach uptake): 2.02 ± 0.16 %ID/g
tissue uptake at 72 h ([2]; iv, 72 h p.i., i.v., read-out: Urine radioactivity): 3.17 ± 1.58 %ID/g
tissue uptake at 72 h ([2]; 72 h, read-out: GI uptake): < 3.2 %ID/g
tissue uptake ([2]; throughout 4–72 h, read-out: Liver uptake throughout): < 3 %ID/g
remaining at 1 h ([3]; 1 h): 99%
remaining at 4 h ([3]; 4 h): 89%
remaining at 24 h ([3]; 24 h): 76%
